Tested on: SK-BR-3 cancer cells
Experiment: Inhibitory activity against proliferation of SK-BR-3 cancer cells (CellTiter-Glo)
Type: cell-based
Details: Homo sapiens, SK-BR-3, 120 h, ErbB2-overexpressing SK-BR-3 cells, 120 hours after treatment
Procedure: To evaluate the inhibitory activity of a compound according to the present invention against the proliferation of ErbB2-overexpressing cancer cells, the following experiment were performed.
10% FBS-added McCOY'S 5A was used for SK-BR-3 cancer cells. 20% FBS-added RPMI-1640 was used for BT-474 cancer cells. Transduced Ba/F3 cells were cultured in a RPMI-1640 medium to which 1 μg/ml puromycin (Invitrogen) was added.
48 hours before compound treatment, each type of the SK-BR-3 and BT-474 cells were seeded at 5,000 cells/well in a white clear bottom 96 well plate (Corning). The compound was diluted in dimethyl sulfoxide (SK-BR-3: 3-fold dilution, a total of 12 concentrations, BT-474: […], a total of 12 concentrations) and injected at 1 μl to have the final concentration of 0.2 nM to 5 μM. As for measurement of live cells, 120 hours after treatment with the compound, a CellTiter-Glo luminescent cell-viability reagent (Promega) was used to store the cells at room temperature for 10 minutes, followed by measurement of luminescence using a reader (SynergyNeo, Biotek). Each test was repeated three times.
The result values were calculated as a cell growth rate (%) compared to the control group. A graph was plotted using the GraphPad Prism version 8.3.0 program, and GI50 values were calculated.

GI50 [nM] | SMILES
500 to 5000 | C=CC(=O)Nc1cc(Nc2cc(N3OCC[C@H]3c3cccc(-c4cccc(F)c4)c3F)ncn2)c(OC)cc1N1CCC(N2CCN(C3CC3)CC2)CC1 [Example 251, (S)-N-(2-(4-(4-cyclopropylpiper-azin-1-yl)piper-idin-1-yl)-5-((6-(3-(2,3′-difluoro-[1,1′-biphenyl]-3-yl)-isoxazolidin-2-yl)-pyrimidin-4-yl)-amino)-4-methoxy-phenyl)acrylamide]
< 50 | C=CC(=O)Nc1cc(Nc2cc(N3OCC[C@@H]3c3cccc(-c4cccc(F)c4)c3F)ncn2)c(OC)cc1N1CCC(N2CCN(C3CC3)CC2)CC1 [Example 252, (R)-N-(2-(4-(4-cyclopropylpiper-azin-1-yl)piper-idin-1-yl)-5-((6-(3-(2,3′-difluoro-[1,1′-biphenyl]-3-yl)isoxazolidin-2-yl)pyrimidin-4-yl)-amino)-4-methoxy-phenyl)acrylamide]
< 50 | C=CC(=O)Nc1cc(Nc2cc(N3OCC[C@@H]3c3cccc(C(=O)NC4CCCCC4)c3)ncn2)c(OC)cc1N1CCC(N2CCN(C3CC3)CC2)CC1 [Example 254, (R)-3-(2-(6-((5-acrylamido-4-(4-(4-cyclopropyl-piperazin-1-yl)-piperidin-1-yl)-2-methoxyphenyl)-amino)pyrimidin-4-yl)isoxazolidin-3-yl)-N-cyclohex-ylbenzamide]
50 to 500 | COc1cc(F)c(NC(=O)/C=C/CN(C)C)cc1Nc1cc(N2OCC[C@@H]2c2ccc(F)c(OCc3cccc(F)c3)c2)ncn1 [Example 255, (R,E)-4-(dimethyl-amino)-N-(2-fluoro-5-((6-(3-(4-fluoro-3-((3-fluorobenzyl)oxy)-phenyl)isoxazol-idin-2-yl)pyrim-idin-4-yl)amino)-4-methoxyphen-yl)but-2-enamide]
50 to 500 | C=CC(=O)Nc1cc(Nc2cc(N3OCC[C@@H]3c3ccc(C)c(OCc4cccc(F)c4)c3)ncn2)c(OC)cc1N1CCN(C)CC1 [Example 256, (R)-N-(5-((6-(3-(3-((3-fluorobenz-yl)oxy)-4-methyl-phenyl)isoxazol-idin-2-yl)pyrim-idin-4-yl)amino)-4-methoxy-2-(4-methylpiperazin-1-yl)phenyl)-acrylamide]
< 50 | C=CC(=O)Nc1cc(Nc2cc(N3OCC[C@@H]3c3ccc(C)c(OCc4cccc(F)c4)c3)ncn2)c(OC)cc1N(C)CCN(C)C [Example 257, (R)-N-(2-((2-(dimethylamino)-ethyl)(methyl)-amino)-5-((6-(3-(3-((3-fluorobenz-yl)oxy)-4-methyl-phenyl)isoxazol-idin-2-yl)pyrim-idin-4-yl)amino)-4-methoxyphen-yl)acrylamide]
500 to 5000 | C=CC(=O)Nc1cc(Nc2cc(N3OCC[C@@H]3c3ccc(C)c(OCc4cccc(F)c4)c3)ncn2)c(OC)cc1F [Example 258, (R)-N-(2-fluoro-5-((6-(3-(3-((3-fluorobenzyl)oxy)-4-methylphenyl)-isoxazolidin-2-yl)-pyrimidin-4-yl)-amino)-4-methoxy-phenyl)acrylamide]
50 to 500 | C=CC(=O)Nc1cc(Nc2cc(N3OCC[C@@H]3c3ccc(F)c(Oc4cccc(C(F)(F)F)c4)c3)ncn2)c(OC)cc1N1CCN(C)CC1 [Example 259, (R)-N-(5-((6-(3-(4-fluoro-3-(3-(trifluoromethyl)-phenoxy)phenyl)-isoxazolidin-2-yl)-pyrimidin-4-yl)-amino)-4-meth-oxy-2-(4-methyl-piperazin-1-yl)-phenyl)acrylamide]
50 to 500 | C=CC(=O)Nc1cc(Nc2cc(N3OCC[C@@H]3c3ccc(F)c(Oc4cccc(C(F)(F)F)c4)c3)ncn2)c(OC)cc1N(C)CCN(C)C [Example 260, (R)-N-(2-((2-(dimethylamino)-ethyl)(methyl)-amino)-5-((6-(3-(4-fluoro-3-(3-(trifluoromethyl)-phenoxy)phenyl)-isoxazolidin-2-yl)-pyrimidin-4-yl)-amino)-4-methoxy-phenyl)acrylamide]
< 50 | C=CC(=O)Nc1cc(Nc2cc(N3OCCC3c3cccc(-c4cccc(F)c4)c3)ncn2)c(OC)cc1N(C)CCN(C)C (stereo not shown) [Example 261, N-(2-((2-(dimeth-ylamino)ethyl)-(methyl)amino)-5-((6-(3-(3′-fluoro-[1,1′-biphenyl]-3-yl)isoxazolidin-2-yl)pyrimidin-4-yl)-amino)-4-methoxy-phenyl)acrylamide]
< 50 | C=CC(=O)Nc1cc(Nc2cc(N3OCC[C@@H]3c3cccc(-c4cnc5ccnn5c4)c3)ncn2)c(OC)cc1N1CCN(C)CC1 [Example 262, (R)-N-(4-methoxy-2-(4-methylpiper-azin-1-yl)-5-((6-(3-(3-(pyrazolo[1,5-a]pyrimidin-6-yl)-phenyl)isoxazol-idin-2-yl)pyrim-idin-4-yl)amino)-phenyl)acrylamide]
< 50 | C=CC(=O)Nc1cc(Nc2cc(N3OCC[C@@H]3c3cccc(-c4cnc5ccnn5c4)c3)ncn2)c(OC)cc1N(C)CCN(C)C [Example 263, (R)-N-(2-((2-(dimethylamino)-ethyl)(methyl)-amino)-4-methoxy-5-((6-(3-(3-(pyr-azolo[1,5-a]pyrim-idin-6-yl)phenyl)-isoxazolidin-2-yl)-pyrimidin-4-yl)-amino)phenyl)-acrylamide]
< 50 | C=CC(=O)Nc1cc(Nc2cc(N3OCC[C@@H]3c3cccc(-c4cnc5ccnn5c4)c3)ncn2)c(OC)cc1N1CCOCC1 [Example 264, (R)-N-(4-methoxy-2-morpholino-5-((6-(3-(3-(pyraz-olo[1,5-a]pyrim-idin-6-yl)phenyl)-isoxazolidin-2-yl)-pyrimidin-4-yl)-amino)phenyl)-acrylamide]
< 50 | C=CC(=O)Nc1cc(Nc2cc(N3OCC[C@@H]3c3cccc(-c4ccc5ncnn5c4)c3)ncn2)c(OC)cc1N1CCN(C)CC1 [Example 266, (R)-N-(5-((6-(3-(3-([1,2,4]triazolo-[1,5-a]pyridin-6-yl)phenyl)isoxazol-idin-2-yl)pyrim-idin-4-yl)amino)-4-methoxy-2-(4-methylpiperazin-1-yl)phenyl)acryl-amide]
< 50 | C=CC(=O)Nc1cc(Nc2cc(N3OCCC3c3cccc(-c4cc(F)cc(F)c4)c3)ncn2)c(OC)cc1N1CCN(C)CC1 (stereo not shown) [Example 267, N-(5-((6-(3-(3′,5′-difluoro-[1,1′-biphenyl]-3-yl)-isoxazolidin-2-yl)-pyrimidin-4-yl)-amino)-4-methoxy-2-(4-methylpiper-azin-1-yl)phenyl)-acrylamide]
< 50 | C=CC(=O)Nc1cc(Nc2cc(N3OCC[C@@H]3c3cccc(-c4ccn5ncnc5c4)c3)ncn2)c(OC)cc1N1CCN(C)CC1 [Example 268, (R)-N-(5-((6-(3-(3-([1,2,4]triazolo-[1,5-a]pyridin-7-yl)phenyl)isoxazol-idin-2-yl)pyrim-idin-4-yl)amino)-4-methoxy-2-(4-methylpiperazin-1-yl)phenyl)-acrylamide]
< 50 | C=CC(=O)Nc1cc(Nc2cc(N3OCC[C@@H]3c3cccc(-c4cc(F)cc(F)c4)c3)ncn2)c(OC)cc1N1CCC(N2CCN(C3CC3)CC2)CC1 [Example 269, (R)-N-(2-(4-(4-cyclopropylpiper-azin-1-yl)piper-idin-1-yl)-5-((6-(3-(3′,5′-difluoro-[1,1′-biphenyl]-3-yl)isoxazolidin-2-yl)pyrimidin-4-yl)-amino)-4-methoxy-phenyl)acrylamide]
< 50 | C=CC(=O)Nc1cc(Nc2cc(N3OCC[C@@H]3c3cccc(-c4cc(F)cc(F)c4)c3)ncn2)c(OC)cc1N1CCO[C@H](C)C1 [Example 270, N-(5-((6-((R)-3-(3′,5′-difluoro-[1,1′-biphenyl]-3-yl)-isoxazolidin-2-yl)-pyrimidin-4-yl)-amino)-4-methoxy-2-((R)-2-methyl-morpholino)phen-yl)acrylamide]
< 50 | C=CCN1CCN(c2cc(OC)c(Nc3cc(N4OCC[C@@H]4c4cccc(-c5cc(F)cc(F)c5)c4)ncn3)cc2NC(=O)C=C)CC1 [Example 271, (R)-N-(2-(4-allyl-piperazin-1-yl)-5-((6-(3-(3′,5′-difluoro-[1,1′-biphen-yl]-3-yl)-isoxazolidin-2-yl)-pyrimidin-4-yl)-amino)-4-methoxy-phenyl)acrylamide]
< 50 | C=CC(=O)Nc1cc(Nc2cc(N3OCC[C@@H]3c3cccc(-c4cc(F)cc(F)c4)c3)ncn2)c(OC)cc1N1CCC(N2CCOCC2)CC1 [Example 272, (R)-N-(5-((6-(3-(3′,5′-difluoro-[1,1′-biphenyl]-3-yl)-isoxazolidin-2-yl)-pyrimidin-4-yl)-amino)-4-methoxy-2-(4-morpholino-piperidin-1-yl)-phenyl)acrylamide]
< 50 | C=CC(=O)Nc1cc(Nc2cc(N3OCC[C@@H]3c3cccc(-c4cc(F)cc(F)c4)c3)ncn2)c(OC)cc1N(C)CCN(C)C [Example 277, (R)-N-(5-((6-(3-(3′,5′-difluoro-[1,1′-biphenyl]-3-yl)-isoxazolidin-2-yl)-pyrimidin-4-yl)-amino)-2-((2-(dimethylamino)-ethyl)(methyl)-amino)-4-methoxy-phenyl)acrylamide]
< 50 | C=CC(=O)Nc1cc(Nc2cc(N3OCC[C@@H]3c3cccc(-c4cccc(F)c4)c3)ncn2)c(OC)cc1N1CCNC2(CC2)C1 [Example 291, (R)-N-(5-((6-(3-(3′-fluoro-[1,1′-biphenyl]-3-yl)-isoxazolidin-2-yl)-pyrimidin-4-yl)-amino)-4-methoxy-2-(4,7-diazaspiro-[2.5]octan-7-yl)-phenyl)acrylamide]
